Laboratory results taken from US20260107938A1, “HERBICIDE/SAFENER COMBINATION BASED ON SAFENERS FROM THE CLASS OF SUBSTITUTED [(1,5- DIPHENYL-1H-1,2,4-TRIAZOL-3-YL)OXY]ACETIC ACIDS AND THEIR SALTS” (BAYER AKTIENGESELLSCHAFT, priority 2022, published 2026).

Tested on: summer wheat (TRZAS; cv. Triso)
Assay: Greenhouse post-emergence trial: reduction in herbicide damage to summer wheat by safener
Assay type: in vivo
Parameters: key to Reduction in damage by safener (difference): difference in visual damage, % points (0-100% scale vs untreated)
Details: 21 days after application
Experimental: Effect of selective herbicide/safener combinations of the invention using the example of reduction in damage to summer wheat (TRZAS):
The seeds of the crop plants to be treated were laid out in soil in plastic pots (diameter ˜8 cm), covered with soil and grown in a greenhouse under good conditions for germination and growth. The trial plants were treated at the early leaf stage (BBCH12).
For this purpose, the herbicides and safeners used were formulated as wettable powders (WP), mixed in accordance with the dose specified in each case, and sprayed onto the above-ground parts of the plants as an aqueous suspension at a water application rate corresponding to 300 l/ha with addition of wetting agent (Mero, 1.5 l/ha).
The dose of the respective herbicides was chosen here such that it causes visually apparent damage (min. 30%, max. 70%) compared to untreated crop plants at the evaluation time on a control group of crop plants without safener treatment that were included in the same trial. After application, the plants were cultivated under good growth conditions in a greenhouse. 21 days after application, the herbicide damage was assessed visually. The damage was assessed visually on a scale of 0-100% by comparison with untreated control plants, and averaged over 2 repeats per treatment.
0%=no noticeable effect compared to the untreated plant 20%=the treated plant population has 20% damage compared to the untreated control population (e.g. growth height, leaf damage, etc.)
100%=treated plants completely damaged/killed.
The safeners were each used at an application rate of 80 g/ha.

[1] = herbicide B19 100 g a.i./ha + safener 80 g/ha
[2] = herbicide B110 50 g a.i./ha + safener 80 g/ha
[3] = herbicide B122 50 g a.i./ha + safener 80 g/ha
[4] = herbicide B123 50 g a.i./ha + safener 80 g/ha

Compound | Damage to the plant on application of herbicide + safener [1] [%] | Reduction in damage by safener (difference) [1] | Reduction in damage by safener (in %) [1] [%] | Damage to the plant on application of herbicide + safener [2] [%] | Reduction in damage by safener (difference) [2] | Reduction in damage by safener (in %) [2] [%] | Damage to the plant on application of herbicide + safener [3] [%] | Reduction in damage by safener (difference) [3] | Reduction in damage by safener (in %) [3] [%] | Damage to the plant on application of herbicide + safener [4] [%] | Reduction in damage by safener (difference) [4] | Reduction in damage by safener (in %) [4] [%]
COC(=O)COc1nc(-c2ccc(Cl)cc2F)n(-c2ccc(Cl)cc2F)n1 [Compound A1, methyl {[1,5-bis(4-chloro-2-fluorophenyl)-1H-1,2,4-triazol-3-yl]oxy}acetate] | 0 | 30 | 100 | 0 | 70 | 100 | 0 | 55 | 100 | 10 | 60 | 86
COC(=O)COc1nc(-c2ccc(F)cc2F)n(-c2ccc(Cl)cc2F)n1 [Compound A5, methyl {[1-(4-chloro-2-fluorophenyl)-5-(2,4-difluorophenyl)-1H-1,2,4-triazol-3-yl]oxy}acetate] | 0 | 30 | 100 | 0 | 70 | 100 | 0 | 55 | 100 | 25 | 45 | 64
